Experimental data: patent EP1336602A1, “Nitrate prodrugs able to release nitric oxide in a controlled and selective way and their use for prevention and treatment of inflammatory, ischemic and proliferative diseases” (Scaramuzzino, Giovanni, priority 2002, dated 2003)

Tests used:
[1] = male, Wistar, in vivo, po, 1.09 mg/kg
[2] = tested on: S-nitrosohemoglobin (SNO-Hb); test: S-nitrosohemoglobin (SNO-Hb) levels in rat blood, photolysis-chemiluminescence; assay type: in vivo, Sprague-Dawely rats; conditions: 100 mg/Kg i.p., versus endogenous levels
Method: A highly sensitive photolysis-chemiluminescence methodology was used. Nitric oxide, released from Hb-SNO through photolysis, was detected in a chemiluminescence spectrometer by reaction with ozone (McMahon, T. J., and Stamler, J. S. (1999) Methods Enzymol. 301, 99-114).
Blood was obtained from the left ventricle (arterial) and jugular vein (venous) of anesthetized Sprague-Dawely rats: 12 were controls and 12 were treated with 100 mg/Kg of N-[4-(5-p-tolyl-3-trifluoromethyl-1H-pyrazol-1-yl)phenylsulfonyl]-p-nitroxymethylbenzamide (Ela). Red blood cells were isolated by centrifugation at 800 g, washed three times in phosphate buffered saline at 4 °C, lysed by the addition of 4-fold excess volume of deionized water containing 0.5 mM EDTA and desalted rapidly according to the method of Penefsky at 4 °C.
In 24 rats, Hb samples were divided in two aliquots which were then treated or not treated with 10-fold excess HgCl2 which can remove the signal of Hb(Fell)NO.

| SMILES | Rat arterial blood pressure [1] [%] | S-nitrosohemoglobin (SNO-Hb) levels in rat arterial blood ([2]; arterial blood (left ventricle)) | S-nitrosohemoglobin (SNO-Hb) levels in rat venous blood ([2]; venous blood (jugular vein)) |
| --- | --- | --- | --- |
| C[C@@H]1C[C@H]2[C@@H]3CCC4=CC(=O)C=C[C@]4(C)[C@@]3(F)[C@@H](O)C[C@]2(C)[C@@]1(O)C(=O)COC(=O)c1ccc(CO[N+](=O)[O-])cc1 [ECXCa, (11β,16α)-9-fluoro-11,17-dihydroxy-21-(p-nitroxymethylbenzoyloxy)-pregna-1,4-diene-3,20-dione] | 100 |  |  |
| Cc1ccc(-c2cc(C(F)(F)F)nn2-c2ccc(S(=O)(=O)NC(=O)c3ccc(CO[N+](=O)[O-])cc3)cc2)cc1 [Ela, N-[4-(5-p-tolyl-3-trifluoromethyl-1H-pyrazol-1-yl)phenylsulfonyl]-p-nitroxymethylbenzamide] |  | significantly increase | significantly increase |
